The text below walks through data of patent US20250051375A1, “ANTI-HIV COMPOUNDS” (Gilead Sciences, Inc., priority 2023, published 2025).

SMILES strings stand for the structures. ≈ marks a conversion by molar mass, not a printed value. Some results are limits rather than exact numbers.

The term EC50 denotes the concentration giving half of the maximal effect. By solubility is commonly meant the dissolved amount per volume that the medium holds. Lower therefore signals a poorly soluble substance.

Data set [1] relates to HIV-1 IIIB strain. In words: MT-4 HIV Wild Type Virus Infection Assay (IIIB Virus). It counts as cell-based. The settings on record: Human immunodeficiency virus 1, IIIB, MT4, 120 h, MT-4 cells acutely infected with HIV-1 IIIB, 5 day incubation, Cell-titer glo. Put shortly:
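MT-4 cells at 2×10^6 cells/ml in RPMI/10% FBS were acutely infected with HIV-1 IIIB for 1 h at 37° C, diluted 25× and added to serially diluted compounds. After 5 days at 37° C, viability read by CellTiter-Glo luminescence; EC50 from dose-response curves.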

Data set [2] has as its target bovine intestinal alkaline phosphatase (Bos taurus (Bovine), UniProt P19111). In words: BiALP: conversion by bovine intestinal alkaline phosphatase. It counts as in vitro ADME. Particulars: 2 μM substrate, 100 ng/mL iALP, Tris pH 7.8, 37° C., 60 minutes; for [Intermediate A] or [Amprenavir]: parent formed. A digest of the protocol: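 Compounds at 2 μM final were incubated 60 min at 37° C in 0.1 M Tris-HCl pH 7.8 with 1 mM MgCl2 and 1 mM ZnCl2, with or without 100 ng/mL iALP (0.01 units/mL). Samples were quenched with acetonitrile/formic acid containing labetalol. Conversion was quantified by LC-MS peak area ratios against a 2 μM product standard.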

Data set [3] is described as follows: PBS Stability Assay. It counts as physicochemical. The settings on record: buffer, pH 7.4, 2 μM, phosphate buffered saline pH 7.4; read-out: PBS T½. Put shortly: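 Test compound at 2 μM final was incubated in PBS, pH 7.4, and sampled at 0, 10, 20, 30, 60 and 120 min into acetonitrile/1% formic acid quench with labetalol internal standard. Remaining compound was quantified by LC-MS peak-area ratio, and half-life came from a first-order exponential fit.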

Data set [4] can be described thus: Solubility in FaSSIF. The settings on record: 23 °C, pH 6.5, fassif, thermodynamic from solid. A digest of the protocol:
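Concentration measured by HPLC-UV after solid compound was dosed at 5 mg/mL into pH 6.5 fasted-state simulated intestinal fluid containing taurocholate and lecithin (4:1 molar) and vortexed.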

bovine intestinal alkaline phosphatase, sequence (P19111 20-506): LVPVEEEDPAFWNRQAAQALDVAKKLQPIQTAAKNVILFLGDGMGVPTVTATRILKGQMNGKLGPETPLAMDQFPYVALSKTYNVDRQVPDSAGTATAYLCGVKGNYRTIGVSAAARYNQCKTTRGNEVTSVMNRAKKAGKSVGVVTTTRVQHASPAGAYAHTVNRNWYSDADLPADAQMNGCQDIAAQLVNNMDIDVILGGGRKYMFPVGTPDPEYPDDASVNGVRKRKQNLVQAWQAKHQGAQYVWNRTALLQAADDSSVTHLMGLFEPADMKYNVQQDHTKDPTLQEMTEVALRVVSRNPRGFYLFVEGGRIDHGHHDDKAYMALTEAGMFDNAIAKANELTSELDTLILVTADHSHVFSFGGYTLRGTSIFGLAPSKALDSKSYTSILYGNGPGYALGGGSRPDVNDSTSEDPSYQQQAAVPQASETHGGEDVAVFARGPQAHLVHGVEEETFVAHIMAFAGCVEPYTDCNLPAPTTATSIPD

In data set [1], `COC(=O)N[C@H](C(=O)N[C@@H](Cc1ccc(C#Cc2cnc(N3CC4CCC(C3)N4C3COC3)nc2)cc1)[C@H](CN(Cc1c(F)cc(-c2ccn(C(F)F)n2)cc1F)NC(=O)[C@@H](NC(=O)OC)C(C)(C)C(F)(F)F)OC(=O)OCOC(=O)CC(C)(C)c1c(CC(=O)N2CCN(S(N)(=O)=O)CC2)cc(C)cc1OP(=O)(O)O)C(C)(C)C(F)(F)F` [Example 85] had an EC50 of 2.4 nM. Further, in data set [2], the “[Compound]” value stood at 1466.1 nM. The half-life at 2 μM in data set [3] is 136 min. Also, the solubility at 2 h in data set [4] is less than 1000 µg/mL.

The molecule `COC(=O)N[C@H](C(=O)N[C@@H](Cc1ccc(C#Cc2cnc(N3CC4CCC(C3)N4C3COC3)nc2)cc1)[C@H](CN(Cc1c(F)cc(-c2ccn(C(F)F)n2)cc1F)NC(=O)[C@@H](NC(=O)OC)C(C)(C)C(F)(F)F)OC(=O)OCOC(=O)CC(C)(C)c1c(CC(=O)N2CCN(S(=O)(=O)N(C)C)CC2)cc(C)cc1OP(=O)(O)O)C(C)(C)C(F)(F)F` [Example 86] had an EC50 in data set [1] of 4.1 nM. In data set [2], the “[Compound]” value amounted to 1890 nM, the “biALP Intermediate A or [Amprenavir] (% of total)” value is recorded as 5.6 % of total and the “[Intermediate A] or [Amprenavir]” value stood at 112.9 nM. Also, the half-life at 2 μM in data set [3] came out at 155 min. The solubility at 2 h in data set [4] is less than 1000 µg/mL.

In data set [1], `COC(=O)N[C@H](C(=O)N[C@@H](Cc1ccc(C#Cc2cnc(N3CC4CCC(C3)N4C3COC3)nc2)cc1)[C@H](CN(Cc1c(F)cc(-c2ccn(C(F)F)n2)cc1F)NC(=O)[C@@H](NC(=O)OC)C(C)(C)C(F)(F)F)OC(=O)OCOC(=O)CC(C)(C)c1c(CC(=O)N[C@@H](CCC(N)=O)C(=O)O)cc(C)cc1OP(=O)(O)O)C(C)(C)C(F)(F)F` [Example 87] registered an EC50 of 3.6 nM. In addition, in data set [2], the “[Compound]” value came to 1161.5 nM. In addition, the half-life at 2 μM in data set [3] turned out to be 325 min. The amount in solution in data set [4] (solubility at 2 h) came to 4500 µg/mL (≈ 2670 µM).

Take `COC(=O)N[C@H](C(=O)N[C@@H](Cc1ccc(C#Cc2cnc(N3CC4CCC(C3)N4C3COC3)nc2)cc1)[C@H](CN(Cc1c(F)cc(-c2ccn(C(F)F)n2)cc1F)NC(=O)[C@@H](NC(=O)OC)C(C)(C)C(F)(F)F)OC(=O)CC(C)(C)c1c(CC(=O)N[C@@H](CCC(N)=O)C(=O)O)cc(C)cc1OP(=O)(O)O)C(C)(C)C(F)(F)F` [Example 88]: in data set [1], the midpoint of the response, the EC50, lay at 42.8 nM. In data set [2], the “[Compound]” value was 1726.6 nM, the “biALP Intermediate A or [Amprenavir] (% of total)” value is on record as 6 % of total and the “[Intermediate A] or [Amprenavir]” value was determined as 109.8 nM. Besides, in data set [3], the half-life at 2 μM was 370 min. The molecule also displayed a solubility at 2 h in data set [4] of 4640 µg/mL (≈ 2880 µM).

In data set [1], `COC(=O)N[C@H](C(=O)N[C@@H](Cc1ccc(C#Cc2cnc(N3CC4CCC(C3)N4C3COC3)nc2)cc1)[C@H](CN(Cc1c(F)cc(-c2ccn(C(F)F)n2)cc1F)NC(=O)[C@@H](NC(=O)OC)C(C)(C)C(F)(F)F)OC(=O)CC(C)(C)c1c(CC(=O)N[C@@H](CC(N)=O)C(=O)O)cc(C)cc1OP(=O)(O)O)C(C)(C)C(F)(F)F` [Example 89] had an EC50 of 115 nM. Also, in data set [2], the “[Compound]” value was determined as 1704.6 nM. In addition, the half-life at 2 μM in data set [3] was found to be 318 min. In data set [4], this molecule returned a solubility at 2 h of 2390 µg/mL (≈ 1500 µM).

In the case of `COC(=O)N[C@H](C(=O)N[C@@H](Cc1ccc(C#Cc2cnc(N3CC4CCC(C3)N4C3COC3)nc2)cc1)[C@H](CN(Cc1c(F)cc(-c2ccn(C(F)F)n2)cc1F)NC(=O)[C@@H](NC(=O)OC)C(C)(C)C(F)(F)F)OC(=O)CC(C)(C)c1c(CC(=O)Nc2ccc(S(=O)(=O)O)cc2)cc(C)cc1OP(=O)(O)O)C(C)(C)C(F)(F)F` [Example 90], the EC50 in data set [1] was found to be 101 nM. Moreover, the “[Compound]” value in data set [2] was found to be 1746 nM. Besides, the half-life at 2 μM in data set [3] is 327 min. In data set [4], the concentration in solution (solubility at 2 h) came to 4240 µg/mL (≈ 2590 µM).

As to `COC(=O)N[C@H](C(=O)N[C@@H](Cc1ccc(C#Cc2cnc(N3CC4CCC(C3)N4C3COC3)nc2)cc1)[C@H](CN(Cc1c(F)cc(-c2ccn(C(F)F)n2)cc1F)NC(=O)[C@@H](NC(=O)OC)C(C)(C)C(F)(F)F)OC(=O)CC(C)(C)c1c(CC(=O)NCCCC(=O)O)cc(C)cc1OP(=O)(O)O)C(C)(C)C(F)(F)F` [Example 91], in data set [1], the EC50 worked out at 60 nM. Moreover, the “[Compound]” value in data set [2] was 2153.3 nM. In data set [3], the half-life at 2 μM came to 390 min. Also, the solubility at 2 h in data set [4] was less than 1000 µg/mL.

For `COC(=O)N[C@H](C(=O)N[C@@H](Cc1ccc(C#Cc2cnc(N3CC4CCC(C3)N4C3COC3)nc2)cc1)[C@H](CN(Cc1c(F)cc(-c2ccn(C(F)F)n2)cc1F)NC(=O)[C@@H](NC(=O)OC)C(C)(C)C(F)(F)F)OC(=O)CC(C)(C)c1c(CC(=O)N[C@H](CCC(=O)O)C(=O)O)cc(C)cc1OP(=O)(O)O)C(C)(C)C(F)(F)F` [Example 92], in data set [1], a half-maximal effect (EC50) was put at 37.1 nM. Further, the “[Compound]” value in data set [2] amounted to 1771.4 nM. In addition, the half-life at 2 μM in data set [3] turned out to be 357 min. In addition, in data set [4], the solubility at 2 h was 3660 µg/mL (≈ 2270 µM).

Take `COC(=O)N[C@H](C(=O)N[C@@H](Cc1ccc(C#Cc2cnc(N3CC4CCC(C3)N4C3COC3)nc2)cc1)[C@H](CN(Cc1c(F)cc(-c2ccn(C(F)F)n2)cc1F)NC(=O)[C@@H](NC(=O)OC)C(C)(C)C(F)(F)F)OC(=O)CC(C)(C)c1c(CC(=O)N(C)CCCC(=O)O)cc(C)cc1OP(=O)(O)O)C(C)(C)C(F)(F)F` [Example 93]: in data set [1], the midpoint of the response, the EC50, lay at 55.8 nM. Also, the “[Compound]” value in data set [2] is on record as 1917.5 nM. Besides, the half-life at 2 μM in data set [3] is 166 min. In addition, the solubility at 2 h in data set [4] was less than 1000 µg/mL.

In data set [1], `COC(=O)N[C@H](C(=O)N[C@@H](Cc1ccc(C#Cc2cnc(N3CC4CCC(C3)N4C3COC3)nc2)cc1)[C@H](CN(Cc1c(F)cc(-c2ccn(C(F)F)n2)cc1F)NC(=O)[C@@H](NC(=O)OC)C(C)(C)C(F)(F)F)OC(=O)CC(C)(C)c1c(CC(=O)N(C)CCC(=O)O)cc(C)cc1OP(=O)(O)O)C(C)(C)C(F)(F)F` [Example 94] had an EC50 of 59 nM. Also, in data set [2], the “[Compound]” value worked out at 1912 nM. The half-life at 2 μM in data set [3] stood at 223 min. The solubility at 2 h in data set [4] was determined as 1580 µg/mL (≈ 1010 µM).

As to `COC(=O)N[C@H](C(=O)N[C@@H](Cc1ccc(C#Cc2cnc(N3CC4CCC(C3)N4C3COC3)nc2)cc1)[C@H](CN(Cc1c(F)cc(-c2ccn(C(F)F)n2)cc1F)NC(=O)[C@@H](NC(=O)OC)C(C)(C)C(F)(F)F)OC(=O)CC(C)(C)c1c(CC(=O)N(C)CC(=O)O)cc(C)cc1OP(=O)(O)O)C(C)(C)C(F)(F)F` [Example 95], in data set [1], the EC50 stood at 99.1 nM. In data set [2], the “[Compound]” value is recorded as 1927.5 nM. Besides, the half-life at 2 μM in data set [3] was determined as 253 min. For the same molecule, the concentration in solution in data set [4] (solubility at 2 h) came to 4260 µg/mL (≈ 2740 µM).

As to `CC[C@H](C)[C@H](NC(=O)Cc1cc(C)cc(OP(=O)(O)O)c1C(C)(C)CC(=O)O[C@@H](CN(Cc1c(F)cc(-c2ccn(C(F)F)n2)cc1F)NC(=O)[C@@H](NC(=O)OC)C(C)(C)C(F)(F)F)[C@H](Cc1ccc(C#Cc2cnc(N3CC4CCC(C3)N4C3COC3)nc2)cc1)NC(=O)[C@@H](NC(=O)OC)C(C)(C)C(F)(F)F)C(=O)O` [Example 96], a half-maximal effect in data set [1] (EC50) was put at 559 nM. Further, the “[Compound]” value in data set [2] is 2114.6 nM. Further, the half-life at 2 μM in data set [3] stood at 260 min. In data set [4], this molecule returned a solubility at 2 h of 1840 µg/mL (≈ 1150 µM).

In turn, `COC(=O)N[C@H](C(=O)N[C@@H](Cc1ccc(C#Cc2cnc(N3CC4CCC(C3)N4C3COC3)nc2)cc1)[C@H](CN(Cc1c(F)cc(-c2ccn(C(F)F)n2)cc1F)NC(=O)[C@@H](NC(=O)OC)C(C)(C)C(F)(F)F)OC(=O)CC(C)(C)c1c(CC(=O)N(C)[C@@H](C)C(=O)O)cc(C)cc1OP(=O)(O)O)C(C)(C)C(F)(F)F` [Example 97] showed an EC50 in data set [1] of 204 nM. For the same molecule, in data set [2], the “[Compound]” value is listed as 1772.9 nM. Moreover, in data set [3], the half-life at 2 μM was determined as 279 min. For the same molecule, the solubility at 2 h in data set [4] was 4660 µg/mL (≈ 2970 µM).

`COC(=O)N[C@H](C(=O)N[C@@H](Cc1ccc(C#Cc2cnc(N3CC4CCC(C3)N4C3COC3)nc2)cc1)[C@H](CN(Cc1c(F)cc(-c2ccn(C(F)F)n2)cc1F)NC(=O)[C@@H](NC(=O)OC)C(C)(C)C(F)(F)F)OC(=O)CC(C)(C)c1c(CC(=O)N[C@@H](C)C(=O)O)cc(C)cc1OP(=O)(O)O)C(C)(C)C(F)(F)F` [Example 98]: the midpoint of the response in data set [1], the EC50, lay at 64.6 nM. For the same molecule, the “[Compound]” value in data set [2] is 1320.1 nM. In addition, the half-life at 2 μM in data set [3] is 388 min. In data set [4], this molecule displayed a solubility at 2 h of 4280 µg/mL (≈ 2750 µM).

Molecule `COC(=O)N[C@H](C(=O)N[C@@H](Cc1ccc(C#Cc2cnc(N3CC4CCC(C3)N4C3COC3)nc2)cc1)[C@H](CN(Cc1c(F)cc(-c2ccn(C(F)F)n2)cc1F)NC(=O)[C@@H](NC(=O)OC)C(C)(C)C(F)(F)F)OC(=O)CC(C)(C)c1c(CC(=O)N[C@@H](CC(C)C)C(=O)O)cc(C)cc1OP(=O)(O)O)C(C)(C)C(F)(F)F` [Example 99] gave an EC50 in data set [1] of 373 nM. Moreover, in data set [2], the “[Compound]” value is recorded as 1928.8 nM. The half-life at 2 μM in data set [3] was 447 min. For the same molecule, in data set [4], the solubility at 2 h was found to be 1880 µg/mL (≈ 1180 µM).
